{
  "source": "PubChem BioAssay AID1259407",
  "about": "(Chemical Carcinogenesis Research Information System (CCRIS), 2018)",
  "test_system": "CCRIS mutagenicity, Ames/micronucleus/aberration tests",
  "experiment": "CCRIS mutagenicity studies",
  "key": {"[1]": {"conditions": "Test System: AMES SALMONELLA TYPHIMURIUM, Strain/Indicator: TA98, Metabolic Activation: NONE, Method: PREINCUBATION"}, "[2]": {"conditions": "Test System: AMES SALMONELLA TYPHIMURIUM, Strain/Indicator: TA100, Metabolic Activation: NONE, Method: PREINCUBATION"}},
  "note": "Active and inactive are the calls of the source. The rule behind the calls is not given here.",
  "data": [
    {"smiles": "CN(C)CCCNc1c2ccccc2nc2c([N+](=O)[O-])cccc12", "values": [
      {"measurement": "mutagenic call", "setting": "Test System: AMES SALMONELLA TYPHIMURIUM, Strain/Indicator: TA98(1,8-DNP6), Metabolic Activation: NONE, Method: STANDARD PLATE", "value": "active; positive"},
      {"measurement": "mutagenic call", "setting": "Test System: AMES SALMONELLA TYPHIMURIUM, Strain/Indicator: TA98(1,8-DNP6), Metabolic Activation: RAT, LIVER, S-9, Method: STANDARD PLATE", "value": "active; positive"},
      {"measurement": "mutagenic call", "setting": "Test System: AMES SALMONELLA TYPHIMURIUM, Strain/Indicator: TA98(NR), Metabolic Activation: NONE, Method: STANDARD PLATE", "value": "active; positive"},
      {"measurement": "mutagenic call", "setting": "Test System: AMES SALMONELLA TYPHIMURIUM, Strain/Indicator: TA98(NR), Metabolic Activation: RAT, LIVER, S-9, Method: STANDARD PLATE", "value": "active; positive"},
      {"measurement": "mutagenic call", "setting": "Test System: AMES SALMONELLA TYPHIMURIUM, Strain/Indicator: TA98, Metabolic Activation: NONE, Method: STANDARD PLATE", "value": "active; positive"},
      {"measurement": "mutagenic call", "setting": "Test System: AMES SALMONELLA TYPHIMURIUM, Strain/Indicator: TA98, Metabolic Activation: RAT, LIVER, S-9, Method: STANDARD PLATE", "value": "active; positive"},
      {"measurement": "mutagenic call", "setting": "Test System: AMES SALMONELLA TYPHIMURIUM, Strain/Indicator: TA100, Metabolic Activation: NONE, Method: STANDARD PLATE", "value": "active; positive"},
      {"measurement": "mutagenic call", "setting": "Test System: AMES SALMONELLA TYPHIMURIUM, Strain/Indicator: TA1535, Metabolic Activation: NONE, Method: STANDARD PLATE", "value": "inactive; negative"},
      {"measurement": "mutagenic call", "setting": "Test System: AMES SALMONELLA TYPHIMURIUM, Strain/Indicator: TA1537, Metabolic Activation: NONE, Method: STANDARD PLATE", "value": "active; positive"},
      {"measurement": "mutagenic call", "setting": "Test System: AMES SALMONELLA TYPHIMURIUM, Strain/Indicator: TA1537 PKM101, Metabolic Activation: NONE, Method: STANDARD PLATE", "value": "active; positive"},
      {"measurement": "mutagenic call", "setting": "Test System: AMES SALMONELLA TYPHIMURIUM, Strain/Indicator: TA1538, Metabolic Activation: NONE, Method: STANDARD PLATE", "value": "active; positive"},
      {"measurement": "mutagenic call", "setting": "Test System: CHINESE HAMSTER V-79, Strain/Indicator: V-79/6-THIOGUANINE, Metabolic Activation: NONE, Method: STANDARD PLATE", "value": "active; positive"},
      {"measurement": "mutagenic call", "setting": "Test System: CHINESE HAMSTER V-79, Strain/Indicator: V-79/OUABAIN, Metabolic Activation: NONE, Method: STANDARD PLATE", "value": "inactive; negative"},
      {"measurement": "mutagenic call", "setting": "Test System: Escherichia coli, Strain/Indicator: CC107 (G6 to G7 frameshifts), Metabolic Activation: None, Method: Modified preincubation", "value": "active; positive"},
      {"measurement": "mutagenic call", "setting": "Test System: Escherichia coli, Strain/Indicator: CC108 (G6 to G5 frameshifts), Metabolic Activation: None, Method: Modified preincubation", "value": "active; positive"},
      {"measurement": "mutagenic call", "setting": "Test System: Escherichia coli, Strain/Indicator: CC109 (CG5 to CG4 frameshifts), Metabolic Activation: None, Method: Modified preincubation", "value": "inactive; negative, investigators report as positive based on revertant frequency correcte"},
      {"measurement": "mutagenic call", "setting": "Test System: Escherichia coli, Strain/Indicator: CC111 (A7 to A6 frameshifts), Metabolic Activation: None, Method: Modified preincubation", "value": "inactive; negative"}
    ]},
    {"smiles": "CC(=O)Nc1cccc(N)c1C(=O)O", "values": [
      {"measurement": "mutagenic call", "setting": "[1]", "value": "inactive; negative"},
      {"measurement": "mutagenic call", "setting": "Test System: AMES SALMONELLA TYPHIMURIUM, Strain/Indicator: TA98, Metabolic Activation: RAT, LIVER, S-9, PHENOBARBITAL AND 5,6-BENZOFLAVONE, Method: PREINCUBATION", "value": "active; positive"},
      {"measurement": "mutagenic call", "setting": "[2]", "value": "inactive; negative"},
      {"measurement": "mutagenic call", "setting": "Test System: AMES SALMONELLA TYPHIMURIUM, Strain/Indicator: TA100, Metabolic Activation: RAT, LIVER, S-9, PHENOBARBITAL AND 5,6-BENZOFLAVONE, Method: PREINCUBATION", "value": "inactive; negative"}
    ]},
    {"smiles": "C=C(C)C(=O)OCCN(C)C", "values": [
      {"measurement": "mutagenic call", "setting": "[1]", "value": "inactive; negative"},
      {"measurement": "mutagenic call", "setting": "Test System: AMES SALMONELLA TYPHIMURIUM, Strain/Indicator: TA98, Metabolic Activation: RAT LIVER S-9, PHENOBARBITAL AND BETA-NAPHTHOFLAVONE, Method: PREINCUBATION", "value": "inactive; negative"},
      {"measurement": "mutagenic call", "setting": "[2]", "value": "inactive; negative"},
      {"measurement": "mutagenic call", "setting": "Test System: AMES SALMONELLA TYPHIMURIUM, Strain/Indicator: TA100, Metabolic Activation: RAT LIVER S-9, PHENOBARBITAL AND BETA-NAPHTHOFLAVONE, Method: PREINCUBATION", "value": "inactive; negative"},
      {"measurement": "mutagenic call", "setting": "Test System: AMES SALMONELLA TYPHIMURIUM, Strain/Indicator: TA102, Metabolic Activation: NONE, Method: PREINCUBATION", "value": "inactive; negative"},
      {"measurement": "mutagenic call", "setting": "Test System: AMES SALMONELLA TYPHIMURIUM, Strain/Indicator: TA102, Metabolic Activation: RAT LIVER S-9, PHENOBARBITAL AND BETA-NAPHTHOFLAVONE, Method: PREINCUBATION", "value": "inactive; negative"},
      {"measurement": "mutagenic call", "setting": "Test System: AMES SALMONELLA TYPHIMURIUM, Strain/Indicator: TA104, Metabolic Activation: NONE, Method: PREINCUBATION", "value": "inactive; negative"},
      {"measurement": "mutagenic call", "setting": "Test System: AMES SALMONELLA TYPHIMURIUM, Strain/Indicator: TA104, Metabolic Activation: RAT LIVER S-9, PHENOBARBITAL AND BETA-NAPHTHOFLAVONE, Method: PREINCUBATION", "value": "active; positive"},
      {"measurement": "mutagenic call", "setting": "Test System: AMES SALMONELLA TYPHIMURIUM, Strain/Indicator: TA1535, Metabolic Activation: NONE, Method: PREINCUBATION", "value": "inactive; negative"},
      {"measurement": "mutagenic call", "setting": "Test System: AMES SALMONELLA TYPHIMURIUM, Strain/Indicator: TA1535, Metabolic Activation: RAT LIVER S-9, PHENOBARBITAL AND BETA-NAPHTHOFLAVONE, Method: PREINCUBATION", "value": "inactive; negative"},
      {"measurement": "mutagenic call", "setting": "Test System: AMES SALMONELLA TYPHIMURIUM, Strain/Indicator: TA1537, Metabolic Activation: NONE, Method: PREINCUBATION", "value": "inactive; negative"},
      {"measurement": "mutagenic call", "setting": "Test System: AMES SALMONELLA TYPHIMURIUM, Strain/Indicator: TA1537, Metabolic Activation: RAT LIVER S-9, PHENOBARBITAL AND BETA-NAPHTHOFLAVONE, Method: PREINCUBATION", "value": "inactive; negative"},
      {"measurement": "mutagenic call", "setting": "Test System: E.COLI, Strain/Indicator: WP2UVRA/PKM101, Metabolic Activation: NONE, Method: PREINCUBATION", "value": "inactive; negative"},
      {"measurement": "mutagenic call", "setting": "Test System: E.COLI, Strain/Indicator: WP2UVRA/PKM101, Metabolic Activation: RAT LIVER S-9, PHENOBARBITAL AND BETA-NAPHTHOFLAVONE, Method: PREINCUBATION", "value": "inactive; negative"},
      {"measurement": "mutagenic call", "setting": "Test System: E.COLI, Strain/Indicator: WP2UVRA, Metabolic Activation: NONE, Method: PREINCUBATION", "value": "inactive; negative"},
      {"measurement": "mutagenic call", "setting": "Test System: E.COLI, Strain/Indicator: WP2UVRA, Metabolic Activation: RAT LIVER S-9, PHENOBARBITAL AND BETA-NAPHTHOFLAVONE, Method: PREINCUBATION", "value": "inactive; negative"}
    ]}
  ]
}
